Among the data in US10919852B2, “Immunomodulator compounds” (CHEMOCENTRYX, INC., priority 2017, dated 2021) are IC50 values, retold here.

The assay deals with human PD-L1 / Human PD-1 (Homo sapiens (Human), UniProt Q9NZQ7). Put plainly: Enzyme-Linked Immunosorbent Assay (ELISA), PD-1/PD-L1 binding. As to conditions: plate-coated human PD-L1, biotinylated human PD-1. In short, it runs like this: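 Plates were coated with human PD-L1 at […]. Biotinylated human PD-1 (0.3 μg/mL) was added with 1:5 serially diluted compound for 1 h at 37 °C. Bound PD-1 was detected with streptavidin-HRP (1 h) and TMB (20 min), with absorbance read at 450 nm.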
human PD-L1 / Human PD-1, sequence (Q9NZQ7 19-239): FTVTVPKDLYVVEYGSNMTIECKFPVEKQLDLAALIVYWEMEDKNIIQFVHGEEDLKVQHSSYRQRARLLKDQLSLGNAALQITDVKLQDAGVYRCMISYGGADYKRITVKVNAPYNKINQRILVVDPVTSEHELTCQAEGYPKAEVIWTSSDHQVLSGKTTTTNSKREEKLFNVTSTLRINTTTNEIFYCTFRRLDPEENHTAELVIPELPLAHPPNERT
In general terms: ELISA stands for enzyme-linked immunosorbent assay.

Structures are written as SMILES.

As a reminder, the IC50 is the concentration that inhibits the measured activity by half. Low readings indicate higher potency, high ones lower potency. `Cc1c(OCCCN2CCC(O)CC2)cccc1-c1cccc2c1CCC2Oc1cc(OCc2cncc(C#N)c2)c(CN[C@H](C(=O)O)[C@@H](C)O)cc1Cl` (some centres unmarked) registered an IC50 of under 5 nM.
With `Cc1c(OCCCN2CCC[C@H]2CO)cccc1-c1cccc2c1CC[C@@H]2Oc1cc(OCc2cncc(C#N)c2)c(CN[C@H](C(=O)O)[C@@H](C)O)cc1Cl`, the IC50 is under 5 nM.
The result for `Cc1c(OCCCN[C@@H]2CCCC[C@@H]2O)cccc1-c1cccc2c1CC[C@@H]2Oc1cc(OCc2cncc(C#N)c2)c(CN[C@H](C(=O)O)[C@@H](C)O)cc1Cl` reads under 5 nM; that for `Cc1c(OCCCN2CCC(O)CC2)cccc1-c1cccc2c1CC[C@@H]2Oc1cc(OCc2cncc(C#N)c2)c(CN[C@H](C(=O)OC(C)(C)C)[C@@H](C)O)cc1Cl`, 5 to 500 nM; that for `N#Cc1cncc(COc2cc(O[C@H]3CCc4c(-c5cccc(OCCCN6CCC(O)CC6)c5Cl)cccc43)c(Cl)cc2CN[C@@H]2CCCC[C@@H]2O)c1`, under 5 nM.
`N#Cc1cncc(COc2cc(O[C@H]3CCc4c(-c5cccc(OCCCN6CCC(O)CC6)c5Cl)cccc43)c(Cl)cc2CNC(CO)CO)c1`: the half-inhibitory concentration (IC50) is under 5 nM.
For `Cc1c(OCCCNC[C@@H](O)CO)cccc1-c1cccc2c1CC[C@@H]2Oc1cc(OCc2cncc(C#N)c2)c(CN[C@H](C(=O)O)[C@@H](C)O)cc1Cl`, the IC50 is under 5 nM.
The compound `C[C@@](CO)(NCc1cc(Cl)c(O[C@H]2CCc3c(-c4cccc(OCCCN5CC(O)C5)c4Cl)cccc32)cc1OCc1cncc(C#N)c1)C(=O)O` yielded an IC50 of under 5 nM.
`Cc1c(OCCCN2CCC(O)CC2)cccc1-c1cccc2c1CC[C@H]2Oc1cc(OCc2cncc(C#N)c2)c(CN[C@H](C(=O)O)[C@@H](C)O)cc1Cl`: the IC50 was under 5 nM.
Regarding `Cc1c(OCCCN2CCC(O)CC2)cccc1-c1cccc2c1CC[C@@H]2Oc1cc(OCCCN2CC[C@H](O)C2)c(CN[C@@H]2CCCC[C@@H]2O)cc1Cl`, the IC50 is under 5 nM.
For `CCOc1cc(O[C@H]2CCc3c(-c4cccc(OCCCN5CC(O)C5)c4C)cccc32)c(Cl)cc1CN[C@@H](CO)C(=O)O`, the IC50 is under 5 nM.
Compound `CCOc1cc(O[C@H]2CCc3c(-c4cccc(OCCCN5CCC(F)CC5)c4C)cccc32)c(Cl)cc1CN[C@@H](CO)C(=O)O` came in with a concentration for half-maximal inhibition (IC50) of under 5 nM.
The compound `CCOc1cc(O[C@H]2CCc3c(-c4cccc(OCCCN5CC6(CC(O)C6)C5)c4C)cccc32)c(Cl)cc1CN[C@@H](CO)C(=O)O` registered a 50% inhibitory concentration (IC50) of under 5 nM.
Regarding `CCOc1cc(O[C@H]2CCc3c(-c4cccc(OCCCN5[C@H](C)CC[C@H]5C)c4C)cccc32)c(Cl)cc1CN1CCC(O)CC1`, the IC50 fell in the range of 5 to 500 nM.
Consider `CCOc1cc(O[C@H]2CCc3c(-c4cccc(OCCCN5[C@H](C)CC[C@H]5C)c4C)cccc32)c(Cl)cc1CN1CCC(C(=O)O)CC1`, for which the half-inhibitory concentration (IC50) lay within 5 to 500 nM.
Consider `CCOc1cc(O[C@H]2CCc3c(-c4cccc(OCCCN5[C@H](C)CC[C@H]5C)c4C)cccc32)c(Cl)cc1CN1CCC(C(=O)OC)CC1`, for which the IC50 was in the range of 5 to 500 nM.
The result for `CCOc1cc(O[C@H]2CCc3c(-c4cccc(OCCCN5[C@H](C)CC[C@H]5C)c4C)cccc32)c(Cl)cc1CN1CCCC[C@@H]1C(=O)O` reads 5 to 500 nM; that for `CCOc1cc(O[C@H]2CCc3c(-c4cccc(OCCCN5[C@H](C)CC[C@H]5C)c4C)cccc32)c(Cl)cc1CN1CCC[C@H](C(=O)O)C1`, 5 to 500 nM.
In the case of `CCOc1cc(O[C@H]2CCc3c(-c4cccc(OCCCN5[C@H](C)CC[C@H]5C)c4C)cccc32)c(Cl)cc1CN1CCC[C@@H](C(=O)O)C1` it was 5 to 500 nM; in that of `CCOc1cc(O[C@H]2CCc3c(-c4cccc(OCCCN5CCC5(C)C)c4C)cccc32)c(Cl)cc1CN(C)CCC(=O)O`, 5 to 500 nM; in that of `Cc1c(OCCCN2CCC(O)CC2)cccc1-c1cccc2c1CC[C@@H]2Oc1cc(OCc2cncc(C#N)c2)c(CN(C)[C@H](C(=O)O)[C@@H](C)O)cc1Cl`, under 5 nM.
The result for `CN(Cc1cc(Cl)c(O[C@H]2CCc3c(-c4cccc(OCCCN5CC(O)C5)c4Cl)cccc32)cc1OCc1cncc(C#N)c1)[C@@](C)(CO)C(=O)O` reads under 5 nM; that for `CCOc1cc(O[C@H]2CCc3c(-c4cccc(OCCCN5CCC5(C)C)c4C)cccc32)c(Cl)cc1CN(C)CCC(=O)OC`, 5 to 500 nM; that for `Cc1c(OCCCN2CCC(F)CC2)cccc1-c1cccc2c1CC[C@@H]2Oc1cc(OCc2cncc(C(N)=O)c2)c(CN(C)CCC(=O)O)cc1Cl`, under 5 nM.
In turn, `CCOC(=O)CCN(C)Cc1cc(Cl)c(O[C@H]2CCc3c(-c4cccc(OCCCN5CCC5(C)C)c4C)cccc32)cc1OCC` displayed an IC50 of 5 to 500 nM.
Consider `CCOc1cc(O[C@H]2CCc3c(-c4cccc(OCCCN5CCC5(C)C)c4C)cccc32)c(Cl)cc1CN(C)CCC(=O)OC(C)(C)C`, for which the concentration for half-maximal inhibition (IC50) is 500 to 20000 nM.
`CCOc1cc(O[C@H]2CCc3c(-c4cccc(OCCCN5CCC5(C)C)c4C)cccc32)c(Cl)cc1CNCCc1nnn[nH]1` displayed an IC50 of 5 to 500 nM.
In the case of `CCOc1cc(O[C@H]2CCc3c(-c4cccc(OCCCN5CCC5(C)C)c4C)cccc32)c(Cl)cc1CNCCn1nn[nH]c1=O` it was 5 to 500 nM; in that of `CCOc1cc(O[C@H]2CCc3c(-c4cccc(OCCCN5CCC5(C)C)c4C)cccc32)c(Cl)cc1CN(CC)CCC(=O)OC`, 5 to 500 nM.
As for `CCOc1cc(O[C@H]2CCc3c(-c4cccc(OCCCN5CCC5(C)C)c4C)cccc32)c(Cl)cc1CN(C)CCc1nnn[nH]1`, the IC50 fell in the range of 5 to 500 nM.
`CCOc1cc(O[C@H]2CCc3c(-c4cccc(OCCCN5CCC5(C)C)c4C)cccc32)c(Cl)cc1CN(C)CCn1nn[nH]c1=O` gave an IC50 of 5 to 500 nM.
The compound `CCOc1cc(O[C@H]2CCc3c(-c4cccc(OCCCN5CCC5(C)C)c4C)cccc32)c(Cl)cc1CN(C)CCC(=O)OC(C)C` displayed an IC50 of 5 to 500 nM.
The result for `CCOc1cc(O[C@H]2CCc3c(-c4cccc(OCCCN5CCC5(C)C)c4C)cccc32)c(Cl)cc1CN(CC)CCC(=O)O` reads 5 to 500 nM.
As to `CCOc1cc(O[C@H]2CCc3c(-c4cccc(OCCCN5CCC5(C)C)c4C)cccc32)c(Cl)cc1CN(C)CCCC(=O)OC`, the IC50 was 5 to 500 nM.
In turn, `CCOc1cc(O[C@H]2CCc3c(-c4cccc(OCCCN5CCC5(C)C)c4C)cccc32)c(Cl)cc1CN(C)CCCC(=O)O` showed an IC50 of under 5 nM.
Compound `CCOc1cc(O[C@H]2CCc3c(-c4cccc(OCCCN5CCC5(C)C)c4C)cccc32)c(Cl)cc1CN(C)CC(C)(C)C(=O)O` had an IC50 of 5 to 500 nM.
The result for `CCOc1cc(O[C@H]2CCc3c(-c4cccc(OCCCN5CCC5(C)C)c4C)cccc32)c(Cl)cc1CN(C)C(C)CC(=O)O` (some centres unmarked) reads 5 to 500 nM; that for `CCOc1cc(O[C@H]2CCc3c(-c4cccc(OCCCN5CCC5(C)C)c4C)cccc32)c(Cl)cc1CNCCS(=O)(=O)O`, 5 to 500 nM.
In turn, `CCOc1cc(O[C@@H]2CCc3c(-c4cccc(OCCCN5CCC5(C)C)c4C)cccc32)c(Cl)cc1CN(C)CCC(=O)O` displayed an IC50 of 500 to 20000 nM.
`CCOc1cc(O[C@H]2CCc3c(-c4cccc(OCCCN5CCC5(C)C)c4C)cccc32)c(Cl)cc1CN(C)CC(C)C(=O)OC` (some centres unmarked): the IC50 was 500 to 20000 nM.
Consider `CCOc1cc(O[C@H]2CCc3c(-c4cccc(OCCCN5CCC5(C)C)c4C)cccc32)c(Cl)cc1CN(CCC(=O)O)C(C)C`, for which the IC50 was 5 to 500 nM.
The result for `CCOc1cc(O[C@H]2CCc3c(-c4cccc(OCCCN5CCC5(C)C)c4C)cccc32)c(Cl)cc1CN(C)CC(C)C(=O)O` (some centres unmarked) reads 5 to 500 nM.
The compound `CCOc1cc(O[C@H]2CCc3c(-c4cccc(OCCCN5CCC5(C)C)c4C)cccc32)c(Cl)cc1CN1CC[C@@H](C(=O)OC)C1` returned an IC50 of 5 to 500 nM.
Consider `CCOc1cc(O[C@H]2CCc3c(-c4cccc(OCCCN5CCC5(C)C)c4C)cccc32)c(Cl)cc1CN1CC[C@H](C(=O)OC)C1`, for which the IC50 was in the range of 5 to 500 nM.
On to `Cc1c(OCCCN2CCC(F)CC2)cccc1-c1cccc2c1CC[C@@H]2Oc1cc(OCc2cncc(C#N)c2)c(CNCCS(=O)(=O)O)cc1Cl`, for which the IC50 is under 5 nM.
In the case of `CCOc1cc(O[C@H]2CCc3c(-c4cccc(OCCCN5CCC5(C)C)c4C)cccc32)c(Cl)cc1CN1CC[C@@H](C(=O)O)C1`, the IC50 was 5 to 500 nM.
With `CCOc1cc(O[C@H]2CCc3c(-c4cccc(OCCCN5CCC5(C)C)c4C)cccc32)c(Cl)cc1CNCCB(O)O`, the half-maximal inhibitory concentration (IC50) was in the range of 5 to 500 nM.
`CCOc1cc(O[C@H]2CCc3c(-c4cccc(OCCCN5CCC5(C)C)c4C)cccc32)c(Cl)cc1CN(C)CCCCC(=O)OC` showed an IC50 of 5 to 500 nM.
In turn, `CCOc1cc(O[C@H]2CCc3c(-c4cccc(OCCCN5CCC5(C)C)c4C)cccc32)c(Cl)cc1CNCCCS(=O)(=O)O` showed a half-inhibitory concentration (IC50) of 5 to 500 nM.
On to `CCOc1cc(O[C@H]2CCc3c(-c4cccc(OCCCN5CCC5(C)C)c4C)cccc32)c(Cl)cc1CN(C)CCCCC(=O)O`, for which the concentration for half-maximal inhibition (IC50) lay in the range of 5 to 500 nM.
In turn, `N#Cc1cncc(COc2cc(O[C@H]3CCc4c(-c5cccc(OCCCN6CCC(F)CC6)c5Cl)cccc43)c(Cl)cc2CN[C@@H]2CCOC[C@H]2F)c1` [drawing 223] had an IC50 of 5 to 500 nM.
`N#Cc1cncc(COc2cc(O[C@H]3CCc4c(-c5cccc(OCCCN6CCC(F)CC6)c5Cl)cccc43)c(Cl)cc2CN[C@@H]2CCOC[C@H]2F)c1` [drawing 224] came in with an IC50 of 5 to 500 nM.
In the case of `Cc1c(OCCCN2CCC(F)CC2)cccc1-c1cccc2c1CC[C@@H]2Oc1cc(OCc2cc(C#N)cc(C#N)c2)c(CN[C@H]2CCNC2=O)cc1Cl` [drawing 306] it was 5 to 500 nM; in that of `Cc1c(OCCCN2CCC(F)CC2)cccc1-c1cccc2c1CC[C@@H]2Oc1cc(OCc2cc(C#N)cc(C#N)c2)c(CN[C@H]2CCNC2=O)cc1Cl` [drawing 345], 5 to 500 nM.
Compound `CCOc1cc(O[C@H]2CCc3c(-c4cccc(OCCCN5CCCC5(C)C)c4C)cccc32)c(Cl)cc1CNC[C@@H]1CCC(=O)N1` [drawing 377] displayed an IC50 of 5 to 500 nM.
With `CCOc1cc(O[C@H]2CCc3c(-c4cccc(OCCCN5CCCC5(C)C)c4C)cccc32)c(Cl)cc1CNC[C@@H]1CCC(=O)N1` [drawing 395], the IC50 is under 5 nM.
